Assay results published in US12411128B2, “Methods and apparatuses for prediction of mechanism of activity of compounds” (The Regents of the University of California, priority 2017, dated 2025).

Tests used:
[1] = tested on: human ventricular cardiac tissue strips (hvCTS); experiment: binary SVM cardioactivity index from hvCTS twitch force readouts; format: cell-based; conditions: for cardioactivity versus vehicle-treated hvCTS by binary SVM accuracy: over tested concentration range, Student's t-test with Bonferroni correction
Procedure: The binary SVM is capable of summarizing all parameters and providing a simple metric that expresses a compound's degree of cardioactivity at a given dosage (Lee et al., 2015). […] As a result, a SVM accuracy metric is calculated to reflect the machine's ability to identify a cardioactive effect (e.g. 75% accuracy means that out of 100 data points, the machine could correctly classify 75 of them). To account for variations within the data set, multiple runs are performed to calculate the mean SVM accuracy. […] Prominent cardioactive effects allow the space between the data from treated and control conditions to become more distinguishable, leading to a higher SVM accuracy with 100% being the maximum.
Although the hvCTSs (FIG. 3, A) were examined under temperature-controlled conditions, there was an observable drift in contractile behavior of the vehicle-treated hvCTSs. For example, the relative measured maximum developed force increased for all pacing frequencies by a cumulative average of 16.96±0.83% upon the ninth serial addition (FIG. 3, B). To account and normalize for baseline drift, each drug condition was compared to its respective vehicle condition via binary SVM (e.g., measurements of the 7th serial drug addition were compared to those of vehicle-treated hvCTSs at the 7th serial addition). To establish a benchmark of non-cardioactivity, a subset of the vehicle-treated hvCTSs were randomly selected to model a non-cardioactive compound. Binary SVM was then performed between the subset and a corresponding control group of equal size (n).
Human ventricular cardiomyocytes were differentiated from a hES2 stem cell line with a Wnt inhibitor-based protocol as previously described (Weng et al., 2014). Human ventricular cardiac tissue strips (hvCTS) were then formed by mixing cardiomyocytes (100 k cells per strip) at 14-16 days post differentiation with a solution of bovine collagen I (2 mg/mL), Matrigel (0.9 mg/mL), and human foreskin fibroblasts (100 k cells per strip) as previously described (Turnbull et al., 2014). The cell-matrix solution (100 uL per tissue strip) was injected into a custom PDMS force-sensing bioreactor device and placed in an incubator (37° C. and 5% CO2). Formed hvCTSs were fed DMEM with 10% new born calf serum, 1% penicillin-streptomycin and 0.1% amphotericin B. The PDMS device contains two flexible vertical end-posts to which the tissue anchors, causing the posts to deflect as the tissue beats. Contractile force measurements were captured with a high speed (100 fps) CCD camera while custom LabVIEW software tracked the centroid movement of the flexible post tips. Force was converted from the deflection of the PDMS posts by an elastic beam bending equation (Serrao et al., 2012). […]

[2] = tested on: human ventricular cardiac tissue strips (hvCTS); experiment: individual contractile force parameters of electrically paced hvCTS; conditions: for change of duration of relaxation phase / change of max force: increasing concentration up to 10^−4 M (100 μM)
Text: Each of the compounds, with the exception of aspirin, belonged to one of five classes with each class comprising a minimum of two compounds. Aspirin functioned as a reference for a cardiac-neutral compound. […] The parameters include: • 1. Desired pacing frequency. • 2. Captured pacing frequency. • 3. Max force generated (amplitude). • 4. […] Max change of force over time ([…]F/[…]t) of contraction phase. • 9. Max change of force over time ([…]F/[…]t) of relaxation phase. • 10. Duration of rise from 50% cutoff to max force. • 11. Duration of decline from max force to 50% cutoff. • 12. Area under the curve of rise from 50% cutoff to max force. • 13. Area under the curve of decline from max force to 50% cutoff. • 14. […] Area under the curve of rise from 50% cutoff to max force. • 17. Area under the curve of decline from max force to 50% cutoff.
The cell-matrix solution (100 uL per tissue strip) was injected into a custom PDMS force-sensing bioreactor device and placed in an incubator (37° C. and 5% CO2). Formed hvCTSs were fed DMEM with 10% new born calf serum, 1% penicillin-streptomycin and 0.1% amphotericin B. The PDMS device contains two flexible vertical end-posts to which the tissue anchors, causing the posts to deflect as the tissue beats. Contractile force measurements were captured with a high speed (100 fps) CCD camera while custom LabVIEW software tracked the centroid movement of the flexible post tips. […] A custom MATLAB script was used to calculate 17 parameters that described the overall shape of the force traces for each contractile event (FIG. 1). Each contraction was regarded as an individual data point for the machine learning analysis.
After 7-8 days post tissue formation, hvCTS were exposed to drugs for pharmacodynamic analysis. Flecainide, lisinopril, norepinephrine and ramipril were provided by Pfizer, while all other compounds were purchased form Sigma-Aldrich. Compounds were initially resuspended in DMSO and subsequently diluted in water for final concentrations composed of less than 0.1% (vol/vol) DMSO. The PDMS device containing the hvCTS was placed onto a heated stage (37° C.) under a dissecting microscope. Before either vehicle or drug addition, the media was replaced with DMEM containing high glucose (4.5 g/L) and HEPES without phenol red. Drug doses were added to a tissue in consecutively increasing manner up to 10 concentrations with 3 minutes in between measurements. Vehicle doses containing only water were applied similarly. A pulse stimulator (AMPI Master-9) connected to platinum wires electrically paced the hvCTS with a monophasic electric field of 5 V/cm with a 10 ms pulse duration.
SVM accuracies of strips exposed to a drug condition were compared to those of the non-cardioactive benchmark by using Student's t-test (desired a value of 0.05) with a Bonferroni correction (m, number of tests or hypotheses, was dependent on the number of drug additions in a screen). […] The Bonferroni correction was also applied when examining changes in specific parameters.

[3] = tested on: human ventricular cardiac tissue strips (hvCTS); experiment: class relationship metrics: binary SVM with Gaussian fit between 'unknown' and library compound; format: cell-based; conditions: for Estimated Similar Concentration of digoxin: ouabain at 1.0 × 10^−5 M
Procedure: Once the drug classes were predicted, the concentrations of library compounds that induced the most similar cardioactive effects as the ‘unknown’ compounds were computed (FIG. 7; protocol in Example 5).
The concentration of a library compound that induced the most similar cardioactive effects as the compound of interest was determined. This class relationship metric was computed by first selecting the compound of interest at a desired concentration and performing a series of binary SVM among the tested range of a library compound. For each concentration of the library compound, the closer the SVM accuracy was to 50%, the more defined boundaries of the compounds overlapped and the more similar the cardioactive effects were. This relationship between SVM accuracy and tested concentration range was presumed to behave in a Gaussian manner with the centroid representing the concentration that would elicit the most similar effects. The Gaussian fit was set with 50% as the lower limit and the highest achieved SVM accuracy as the upper limit. If the original SVM accuracies reached the 50% mark and remained around this value for subsequent concentrations, only the first concentration to reach the 50% was included in the fit to accurately model one side of the Gaussian curve.

## CC(=O)Oc1ccccc1C(=O)O [Aspirin]
[1]; binary SVM vs vehicle-treated hvCTS, 10 nM to 100 μM, n=6
  SVM accuracy, average among all serial additions: 52.85±1.77%
[1]
  cardioactivity versus vehicle-treated hvCTS by binary SVM accuracy: non-cardioactivity

## COc1cc(N)c(Cl)cc1C(=O)NC1CCN(CCCOc2ccc(F)cc2)CC1OC (stereo not shown) [Cisapride]
[2]; paced at 0.5 Hz
  change of duration of relaxation phase: increased
  change of max force: decreased
[3]; cisapride at 1.0 × 10^−4 M, centroid of Gaussian fit
  Estimated Similar Concentration of flecainide: Flecainide (1.03 × 10^−5) M

## C[C@H]1O[C@@H](O[C@H]2[C@@H](O)C[C@H](O[C@H]3[C@@H](O)C[C@H](O[C@H]4CC[C@@]5(C)[C@H](CC[C@@H]6[C@@H]5C[C@@H](O)[C@]5(C)[C@@H](C7=CC(=O)OC7)CC[C@]65O)C4)O[C@@H]3C)O[C@@H]2C)C[C@H](O)[C@@H]1O [Digoxin]
[2]; paced at 0.5 Hz
  change of duration of relaxation phase: increase in duration of relaxation phase
  change of max force: decrease in max force

## CC(C)NCC(O)c1ccc(O)c(O)c1 (stereo not shown) [Isoproterenol]
[2]; 10 μM
  decrease of duration of the relaxation phase (time from maximum developed force to 95% cutoff): 22.19±19.35%
[2]; 10 μM, paced at 0.5 Hz
  increase in maximum developed force: 10.42±16.23%
[2]; paced at 0.5 Hz, 3.0×10^−7 to 10^−5 M, n=10
  duration of the relaxation phase versus the vehicle study (lusitropic effect): decreased significantly
[2]; paced hvCTS (nifedipine 1 Hz; isoproterenol 10 μM, 0.5 Hz)
  inotropic effect: negligible inotropic effects

## NCCCC[C@H](N[C@@H](CCc1ccccc1)C(=O)O)C(=O)N1CCC[C@H]1C(=O)O [Lisinopril]
[1]
  cardioactivity versus vehicle-treated hvCTS by binary SVM accuracy: did not have detectable cardioactive effects

## COCC(=O)O[C@]1(CCN(C)CCCc2nc3ccccc3[nH]2)CCc2cc(F)ccc2[C@@H]1C(C)C [Mibefradil]
[3]; mibefradil at 3.0 × 10^−6 M, centroid of Gaussian fit
  Estimated Similar Concentration of nifedipine: Nifedipine (1.28 × 10^−7) M

## NC[C@H](O)c1ccc(O)c(O)c1 [Norepinephrine]
[3]; norepinephrine at 1.0 × 10^−5 M, centroid of Gaussian fit
  Estimated Similar Concentration of isoproterenol: (1.44 × 10^−6) M

## C[C@@H]1O[C@@H](O[C@H]2C[C@@H](O)[C@]3(CO)[C@H]4[C@H](O)C[C@]5(C)[C@@H](C6=CC(=O)OC6)CC[C@]5(O)[C@@H]4CC[C@]3(O)C2)[C@H](O)[C@H](O)[C@H]1O [Ouabain]
[2]; 100 μM
  treated strips that stopped beating at all pacing frequencies: 4 of the 10
[3]; ouabain 1.0×10^−5 M vs digoxin 5.35×10^−5 M
  fold lower concentration than digoxin to achieve the same level of cardioactivity: approximately 5 fold
[3]; centroid of Gaussian fit
  Estimated Similar Concentration of digoxin: Digoxin (5.35 × 10^−5) M
[3]; centroid of Gaussian fit, listed as ouabain
  Estimated Similar Concentration of digoxin: 53.5 µM

## CCOC(=O)[C@H](CCc1ccccc1)N[C@@H](C)C(=O)N1[C@H](C(=O)O)C[C@@H]2CCC[C@@H]21 [Ramipril]
[1]
  cardioactivity versus vehicle-treated hvCTS by binary SVM accuracy: did not have detectable cardioactive effects
